Where “and” joins values, the source holds several entries; their conditions need not be identical. Equal entries are not always repeated.
Legend:
PcrV [1] = target: T1, PcrV (Pseudomonas aeruginosa, UniProt G3XD49); experiment: SPR dose-response binding to immobilized PcrV (equilibrium analysis)
Experimental: The SPR screening was performed using the ProteOn^TM XPR36 Protein Interaction Array System (Bio-Rad Laboratories Inc., Hercules, CA, USA) with ProteOn GLH sensor chip (Bio-Rad Laboratories Inc., Hercules, CA, USA), and the results were analyzed with the ProteOn Manager software^TM (Bio-Rad Laboratories Inc., Hercules, CA, USA), Excel 2016 (Microsoft Office), and GraphPad Prism 7.04. All SPR experiments were performed at 25 °C. The multichannel module of the ProteOn system was in the vertical position during protein immobilization. The proteins were attached to the surface of a GLH sensor chip via amine coupling chemistry. A buffer scouting was performed to elucidate the optimal binding conditions of PcrV to the GLH sensor chip. First, channels 1–4 on the chip surface were activated using a 1:1 mixture of 40 mM 1-ethyl-3-(3-dimethylaminopropyl)carbodiimide hydrochloride (EDAC) (Bio-Rad Laboratories Inc., Hercules, CA, USA) and 10 mM N-hydroxysulfosuccinimide (sulfo-NHS, Bio-Rad Laboratories Inc., Hercules, CA, USA) for 300 s at 30 µL/min. Next, the proteins PcrV (33,398.6 Da, 6.37 mg/mL) was diluted in 10 mM NaOAc (pH 4, 4.5, and 5) to 0.05 mg/mL. PcrV was immobilized in channel 1–3 for 540 s at 30 µL/min. Channel 4 was flushed with 10 mM NaOAc (pH 5) for 540 s at 30 µL/min. As deactivating agent, a 1:1 mixture of 1 M ethanolamine and milli-Q filtered water was used. The deactivating solution was injected over all four channels for 300 s at 30 µL/min. Phosphate buffered saline with Tween (PBST; 10 mM phosphate buffer pH 7.4, 140 mM NaCl, 2.7 mM KCl, and 0.05% Tween 20) was used as the running buffer. The final amount of immobilized protein was measured in resonance units (RU) relative to the signal of the baseline prior activation. […] Immobilization of PcrV diluted in sodium acetate of pH 4.5 in one channel and of pH 5 in one channel were used in the beginning of the screening procedure (for plate 1–26). Since no difference was found between the two pH values, the PcrV protein was diluted in sodium acetate at pH 5 only (in two channels) from plate 27 and the rest of the screen. The immobilization procedure for the screening was performed as described above with the addition that the control protein carbonic anhydrase isoenzyme II from bovine erythrocytes (CAII, Sigma-Aldrich, article number 2522) was immobilized in one channel that was activated and deactivated as described above. CAII (1 mg/mL in PBS) was deactivated when diluted in 10 mM sodium acetate (pH 4) to 0.05 mg/mL. Immobilization level of the deactivated CAII was 18,000 RU. Deactivated CAII was used as a control protein according to the recommendations by the ProteOn manufacturer (Bio-Rad Laboratories Inc., Hercules, CA, USA). As running buffer, we employed PBS (pH 7.4, 0.05% Tween 20).
First, the PcrV protein was immobilized in two channels as described above while keeping a blank channel which was activated and deactivated as described above. The multichannel module of the ProteOn system was in horizontal position during the small molecule interaction studies. They were serially diluted to (400,) 200, 100, 50, 25, 12.5, 6.25, and (3.125); or 100, 50, 25, and 12.5 µM; or 100, 66.7, 44.4, 29.6, 19.7, and 13.2 µM in PBST (0.05% Tween 20) with a total concentration of 5% DMSO in 96-well plates. The running buffer was PBST (0.05% Tween 20) containing 5% DMSO. The analytes were injected at a flowrate of 100 µL/min, contact time was 60 s, and dissociation time was 60–120 s. Solvent correction was performed continuously during the experiments to account for bulk response of DMSO. The data was then baseline-aligned, processed by channel referencing with the blank channel, and solvent-corrected. The equilibrium dissociation constant (KD) values were determined from equilibrium analysis in the ProteOn Manager software^TM. Solubility problems frequently hampered KD determination since the small molecules could not always be dissolved in concentrations high enough to reach a plateau. […]

P. aeruginosa strain PAK = experiment: Bacterial toxicity (growth) assay, OD600; type: cell-based, Pseudomonas aeruginosa; details: 200, 100, 50 and 25 µM; OD600 for 8 h
Experimental: Overnight culture of the P. aeruginosa strain PAK was diluted in LB (Luria Broth) to an OD600 of 0.2. The bacteria were added into microtiter plates, and 25, 50, 100, and 200 µM of the potential binders were added in triplicates to the bacteria with a final concentration of 1% DMSO. […] Wells with 1% DMSO without substance were used as positive controls.

PcrV [2] = target: T1, PcrV; experiment: SPR library screening at 100 µM, PcrV versus deactivated control protein CAII; type: binding; details: Figure 2
Experimental: The SPR screening was performed using the ProteOn^TM XPR36 Protein Interaction Array System (Bio-Rad Laboratories Inc., Hercules, CA, USA) with ProteOn GLH sensor chip (Bio-Rad Laboratories Inc., Hercules, CA, USA), and the results were analyzed with the ProteOn Manager software^TM (Bio-Rad Laboratories Inc., Hercules, CA, USA), Excel 2016 (Microsoft Office), and GraphPad Prism 7.04. All SPR experiments were performed at 25 °C. The multichannel module of the ProteOn system was in the vertical position during protein immobilization. The proteins were attached to the surface of a GLH sensor chip via amine coupling chemistry. A buffer scouting was performed to elucidate the optimal binding conditions of PcrV to the GLH sensor chip. First, channels 1–4 on the chip surface were activated using a 1:1 mixture of 40 mM 1-ethyl-3-(3-dimethylaminopropyl)carbodiimide hydrochloride (EDAC) (Bio-Rad Laboratories Inc., Hercules, CA, USA) and 10 mM N-hydroxysulfosuccinimide (sulfo-NHS, Bio-Rad Laboratories Inc., Hercules, CA, USA) for 300 s at 30 µL/min. Next, the proteins PcrV (33,398.6 Da, 6.37 mg/mL) was diluted in 10 mM NaOAc (pH 4, 4.5, and 5) to 0.05 mg/mL. PcrV was immobilized in channel 1–3 for 540 s at 30 µL/min. […] The final amount of immobilized protein was measured in resonance units (RU) relative to the signal of the baseline prior activation. […]

[3] = KD ± standard error of KD (Table S1), single experiment, standard error from ProteOn Manager software
[4] = SPR KD, equilibrium analysis, mean ± SD of three or more independent experiments, individual values where n < 3, 25 °C, PBST 5% DMSO

T1 sequence (G3XD49 entry or part of it): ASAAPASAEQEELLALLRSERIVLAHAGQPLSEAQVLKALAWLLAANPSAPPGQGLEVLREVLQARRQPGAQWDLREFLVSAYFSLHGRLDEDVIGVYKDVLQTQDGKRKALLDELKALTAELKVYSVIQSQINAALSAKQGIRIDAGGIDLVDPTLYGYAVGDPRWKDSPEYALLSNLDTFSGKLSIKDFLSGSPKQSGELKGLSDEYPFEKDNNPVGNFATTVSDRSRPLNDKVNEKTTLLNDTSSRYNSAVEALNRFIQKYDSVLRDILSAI

Row | Structure (SMILES) | Kd (PcrV [1]; [3]) [µM] | Kd (PcrV [1]; [4]) | Rmax (Table S1) (PcrV [1]; single experiment) | Effect on bacterial growth (P. aeruginosa strain PAK) | Kd (PcrV [1]; KD (equilibrium analysis, Figure 3B), one representative experiment, binding levels at 45-55 s) [µM] | Rmax (equilibrium analysis, Figure 3B) (PcrV [1]; one representative experiment) [RU] | Selectivity of binding to PcrV over CAII in SPR screening (PcrV [2])
1 | Cc1c(Br)ccc(OC[C@@H]2C[C@H]2C(=O)O)c1C (relative stereo) [Compound 32] | 61.1 ± 16.9 | ~60 µM and 61 to 63 µM and 61 µM | 81.8 | without affecting bacterial growth | – | – | –
2 | Cc1c(Br)ccc(OC[C@@H]2C[C@@H]2C(=O)O)c1C (relative stereo) [Compound 33] | 59.5 ± 11.1 | ~60 µM and 61 to 63 µM and 63 µM | 76.8 | without affecting bacterial growth | – | – | –
3 | Cc1c(Br)ccc(OCCCC(=O)O)c1C [Compound H1] | – | < 150 µM and 106 µM | – | – | 98.3 | 71.3 | selective PcrV binders

Reference: PMC7824769, “Identification of Small Molecules Blocking the Pseudomonas aeruginosa Type III Secretion System Protein PcrV” (Biomolecules, 2021)
